Measurements: US9073853B2, “Cycloalkane carboxylic acid derivatives as CXCR3 receptor antagonists” (Sanofi, priority 2011, dated 2015)
pIC50: −log10 of the molar value.

These compounds were tested against human CXCR3-A receptor (Homo sapiens (Human), UniProt P49682) (assay: 125I-CXCL10 competition radioligand binding assay). Settings: displacement of 125I-CXCL10 from membranes of CHO cells expressing human recombinant CXCR3-A.
Method: IC50 values were determined for the test compounds and used to explore the structure-activity relationships (SAR). […] This cell line was registered in Sanofi-Aventis cell line bank. […] Cell suspension was diluted with PBS and cells were collected with centrifugation at 230 g for 10 minutes at 10° C. with a Juan centrifuge. […] The supernatant was carefully collected and centrifuged at 100,000×g for 60 min at 4° with a Beckman Avanti J30 centrifuge. […] Protein concentration was determined with Bio-Rad protein assay (Cat No 500-0006). Membrane aliquots were stored at -80° C. […] The composition of the binding assay buffer was determined in a course of detailed optimization procedure. […] Binding reaction was initiated by adding of membranes (10-20 μg proteins, approximately 5×10^5 cell equivalents) to the reaction mixture. After 60 minutes of incubation at 25° C. the reaction was terminated by rapid filtration over GF/B glass fiber filters that were pre-soaked with 0.5% polyethyleneimine (Fluka Analytical, P3143) for 1 hour, using a Skatron cell harvester device. Filters then were washed with 8 ml of ice-cold wash buffer (modified binding buffer in which BSA was omitted and the concentration of NaCl was adjusted to 500 mM concentration). The radioactivity retained on the filters was measured by a Wizard 1470 Automatic Gamma counter. Test compounds were dissolved prior to the binding assay at a concentration of 10 mM in DMSO. Stock solutions were stored at -20° C. for not longer than 3 months. […] Before adding these solutions of test compound to the binding reaction mixture, an intermediate dilution procedure was applied, in which 30 μL of each solution sample was transferred into a dilution tube containing 970 μL of binding assay buffer. […] The IC50 values and Hill slopes for competition binding data were obtained using nonlinear four-parametric curve fitting method.

Chain of human CXCR3-A receptor (P49682 whole entry): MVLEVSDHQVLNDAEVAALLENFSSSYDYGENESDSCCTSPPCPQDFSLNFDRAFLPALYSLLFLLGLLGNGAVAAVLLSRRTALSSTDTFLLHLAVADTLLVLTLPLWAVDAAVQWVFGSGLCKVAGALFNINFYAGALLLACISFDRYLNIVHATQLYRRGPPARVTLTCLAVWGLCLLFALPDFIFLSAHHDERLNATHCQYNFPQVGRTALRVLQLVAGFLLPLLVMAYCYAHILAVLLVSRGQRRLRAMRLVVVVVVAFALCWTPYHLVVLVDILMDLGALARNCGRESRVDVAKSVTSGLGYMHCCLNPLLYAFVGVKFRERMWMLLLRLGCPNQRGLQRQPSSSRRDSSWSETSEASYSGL

| Structure (SMILES) | pIC50 |
| --- | --- |
| Cc1cc(CN(C[C@H]2CC[C@H](C(=O)O)CC2)C2CCc3cc(Cl)ccc32)ccc1OCCN1C(=O)CCC1=O (stereo partly drawn) [Example 29, trans-4-[((5-Chloro-indan-1-yl)-{4-[2-(2,5-dioxo-pyrrolidin-1-yl)-ethoxy]-3-methyl-benzyl}-amino)-methyl]-cyclohexanecarboxylic acid] | 6.82 |
| Cc1cc(CN(C[C@H]2CC[C@H](C(=O)O)CC2)[C@H]2CCc3cc(Cl)ccc32)ccc1OCCN1C(=O)CCC1=O [Example 30, trans-4-[(((S)-5-Chloro-indan-1-yl)-{4-[2-(2,5-dioxo-pyrrolidin-1-yl)-ethoxy]-3-methyl-benzyl}-amino)-methyl]-cyclohexanecarboxylic acid] | 7.28 |
| Cc1cc(CN(C[C@H]2CC[C@H](C(=O)O)CC2)[C@@H]2CCc3cc(Cl)ccc32)ccc1OCCN1C(=O)CCC1=O [Example 31, trans-4-[(((R)-5-Chloro-indan-1-yl)-{4-[2-(2,5-dioxo-pyrrolidin-1-yl)-ethoxy]-3-methyl-benzyl}-amino)-methyl]-cyclohexanecarboxylic acid] | 6.44 |
| C[C@@H](c1ccc(Cl)cc1)N(Cc1ccc(OCCN2C(=O)CCC2=O)c(Cl)c1)C[C@H]1CC[C@H](C(=O)O)CC1 [Example 32, trans-4-({{3-Chloro-4-[2-(2,5-dioxo-pyrrolidin-1-yl)-ethoxy]-benzyl}-[(S)-1-(4-chloro-phenyl)-ethyl]-amino}-methyl)-cyclohexanecarboxylic acid] | 6.91 |
| COc1cc(CN(C[C@H]2CC[C@H](C(=O)O)CC2)C(C)c2ccc3c(c2)CCO3)ccc1/C=C/CN1C(=O)CCC1=O (stereo partly drawn) [Example 35, trans-4-[([1-(2,3-Dihydro-benzofuran-5-yl)-ethyl]-{4-[(E)-3-(2,5-dioxo-pyrrolidin-1-yl)-propenyl]-3-methoxy-benzyl}-amino)-methyl]-cyclohexanecarboxylic acid] | 5.84 |
| COc1cc(CN(C[C@H]2CC[C@H](C(=O)O)CC2)[C@@H](C)c2ccc(Cl)cc2)ccc1OCCN1C(=O)COC1=O [Example 36, trans-4-[([(S)-1-(4-Chloro-phenyl)-ethyl]-{4-[2-(2,4-dioxo-oxazolidin-3-yl)-ethoxy]-3-methoxy-benzyl}-amino)-methyl]-cyclohexanecarboxylic acid] | 7.55 |
| COc1cc(CN(C[C@H]2CC[C@H](C(=O)O)CC2)[C@@H](C)c2ccc(Cl)cc2)ccc1OCCn1c(=O)ccn(C)c1=O [Example 37, trans-4-[([(S)-1-(4-Chloro-phenyl)-ethyl]-{3-methoxy-4-[2-(3-methyl-2,6-dioxo-3,6-dihydro-2H-pyrimidin-1-yl)-ethoxy]-benzyl}-amino)-methyl]-cyclohexanecarboxylic acid] | 7.12 |
| COc1cc(CN(C[C@H]2CC[C@H](C(=O)O)CC2)C2CCc3cc(Cl)c(C)cc32)ccc1OCCN1C(=O)CCC1=O (stereo partly drawn) [Example 42, trans-4-[((5-Chloro-6-methyl-indan-1-yl)-{4-[2-(2,5-dioxo-pyrrolidin-1-yl)-ethoxy]-3-methoxy-benzyl}-amino)-methyl]-cyclohexanecarboxylic acid] | 7.06 |
| COc1cc(CN(C[C@H]2CC[C@H](C(=O)O)CC2)C2CCc3cc(Cl)ccc32)ccc1OCCn1c(=O)ccn(C)c1=O (stereo partly drawn) [Example 48, trans-4-[((5-Chloro-indan-1-yl)-{3-methoxy-4-[2-(3-methyl-2,6-dioxo-3,6-dihydro-2H-pyrimidin-1-yl)-ethoxy]-benzyl}-amino)-methyl]-cyclohexanecarboxylic acid] | 6.39 |
| COc1cc(CN(C[C@H]2CC[C@H](C(=O)O)CC2)C(C)c2ccc3c(c2)CCO3)ccc1C1CC1CN1C(=O)CCC1=O (stereo partly drawn) [Example 49, trans-4-[([1-(2,3-Dihydro-benzofuran-5-yl)-ethyl]-{4-[2-(2,5-dioxo-pyrrolidin-1-ylmethyl)-cyclopropyl]-3-methoxy-benzyl}-amino)-methyl]-cyclohexanecarboxylic acid] | 6.13 |
| COc1cc(CN(C[C@H]2CC[C@H](C(=O)O)CC2)C2CCc3cc(Cl)ccc32)ccc1CCCN1C(=O)CN(C)C1=O (stereo partly drawn) [Example 50, trans-4-[((5-Chloro-indan-1-yl)-{3-methoxy-4-[3-(3-methyl-2,5-dioxo-imidazolidin-1-yl)-propyl]-benzyl}-amino)-methyl]-cyclohexanecarboxylic acid] | 5.91 |

More lines, in order of rising pIC50, values ahead:

| pIC50 | Structure (SMILES) |
| --- | --- |
| 6.10 | CC(c1ccc2c(c1)CCO2)N(Cc1ccc(CCCN2C(=O)CCC2=O)c(Cl)c1)C[C@H]1CC[C@H](C(=O)O)CC1 (stereo partly drawn) [Example 47, trans-4-({{3-Chloro-4-[3-(2,5-dioxo-pyrrolidin-1-yl)-propyl]-benzyl}-[1-(2,3-dihydro-benzofuran-5-yl)-ethyl]-amino}-methyl)-cyclohexanecarboxylic acid] |
| 6.39 | COc1cc(CN(C[C@H]2CC[C@H](C(=O)O)CC2)C2CCc3cc(Cl)ccc32)ccc1CCCN1C(=O)CCC1=O (stereo partly drawn) [Example 44, trans-4-[((5-Chloro-indan-1-yl)-{4-[3-(2,5-dioxo-pyrrolidin-1-yl)-propyl]-3-methoxy-benzyl}-amino)-methyl]-cyclohexanecarboxylic acid] |
| 6.79 | COc1cc(CN(C[C@H]2CC[C@H](C(=O)O)CC2)C(C)c2ccc3c(c2)CCO3)ccc1OCCN1C(=O)CCCC1=O (stereo partly drawn) [Example 38, trans-4-[([1-(2,3-Dihydro-benzofuran-5-yl)-ethyl]-{4-[2-(2,6-dioxo-piperidin-1-yl)-ethoxy]-3-methoxy-benzyl}-amino)-methyl]-cyclohexanecarboxylic acid] |
| 6.80 | COc1cc(CN(C[C@H]2CC[C@H](C(=O)O)CC2)[C@@H](C)c2ccc(Cl)cc2)ccc1CCCN1C(=O)CN(C)C1=O [Example 51, trans-4-[([(S)-1-(4-Chloro-phenyl)-ethyl]-{3-methoxy-4-[3-(3-methyl-2,5-dioxo-imidazolidin-1-yl)-propyl]-benzyl}-amino)-methyl]-cyclohexanecarboxylic acid] |
| 6.88 | COc1cc(CN(CC2CCCC(C(=O)O)C2)C(C)c2ccc3c(c2)CCO3)ccc1OCCN1C(=O)CCC1=O (centres unmarked) [Example 41, 3-[([1-(2,3-Dihydro-benzofuran-5-yl)-ethyl]-{4-[2-(2,5-dioxo-pyrrolidin-1-yl)-ethoxy]-3-methoxy-benzyl}-amino)-methyl]-cyclohexanecarboxylic acid] |
| 7.00 | Cc1cc(CN(C[C@H]2CC[C@H](C(=O)O)CC2)[C@@H](C)c2ccc(Cl)cc2)ccc1OCCN1C(=O)CN(C)C1=O [Example 39, trans-4-[([(S)-1-(4-Chloro-phenyl)-ethyl]-{3-methyl-4-[2-(3-methyl-2,5-dioxo-imidazolidin-1-yl)-ethoxy]-benzyl}-amino)-methyl]-cyclohexanecarboxylic acid] |
| 7.09 | CCC(c1ccc2c(c1)CCO2)N(Cc1ccc(OCCN2C(=O)CN(C)C2=O)c(OC)c1)C[C@H]1CC[C@H](C(=O)O)CC1 (stereo partly drawn) [Example 28, trans-4-[([1-(2,3-Dihydro-benzofuran-5-yl)-propyl]-{3-methoxy-4-[2-(3-methyl-2,5-dioxo-imidazolidin-1-yl)-ethoxy]-benzyl}-amino)-methyl]-cyclohexanecarboxylic acid] |
| 7.10 | COc1cc(CN(C[C@H]2CC[C@H](C(=O)O)CC2)[C@H](C)c2ccc(Cl)c(C)c2)ccc1OCCN1C(=O)CCC1=O [Example 27, trans-4-[([(R)-1-(4-Chloro-3-methyl-phenyl)-ethyl]-{4-[2-(2,5-dioxo-pyrrolidin-1-yl)-ethoxy]-3-methoxy-benzyl}-amino)-methyl]-cyclohexanecarboxylic acid] |
| 7.17 | COc1cc(CN(C[C@H]2CC[C@H](C(=O)O)CC2)C2CCc3c2ccc(Cl)c3C)ccc1OCCN1C(=O)CCC1=O (stereo partly drawn) [Example 43, trans-4-[((5-Chloro-4-methyl-indan-1-yl)-{4-[2-(2,5-dioxo-pyrrolidin-1-yl)-ethoxy]-3-methoxy-benzyl}-amino)-methyl]-cyclohexanecarboxylic acid] |
| 7.19 | COc1cc(CN(C[C@H]2CC[C@H](C(=O)O)CC2)[C@@H](C)c2ccc(Cl)c(C)c2)ccc1OCCN1C(=O)CCC1=O [Example 26, trans-4-[([(S)-1-(4-Chloro-3-methyl-phenyl)-ethyl]-{4-[2-(2,5-dioxo-pyrrolidin-1-yl)-ethoxy]-3-methoxy-benzyl}-amino)-methyl]-cyclohexanecarboxylic acid] |
| 7.38 | Cc1cc(CN(C[C@H]2CC[C@H](C(=O)O)CC2)C(C)c2ccc3c(c2)CCO3)ccc1OCCN1C(=O)CSC1=O (stereo partly drawn) [Example 33, trans-4-[([1-(2,3-Dihydro-benzofuran-5-yl)-ethyl]-{4-[2-(2,4-dioxo-thiazolidin-3-yl)-ethoxy]-3-methyl-benzyl}-amino)-methyl]-cyclohexanecarboxylic acid] |
| 7.66 | COc1cc(CN(C[C@H]2CC[C@H](C(=O)O)CC2)[C@@H](C)c2ccc(Cl)cc2)ccc1OCCN1C(=O)CSC1=O [Example 34, trans-4-[([(S)-1-(4-Chloro-phenyl)-ethyl]-{4-[2-(2,4-dioxo-thiazolidin-3-yl)-ethoxy]-3-methoxy-benzyl}-amino)-methyl]-cyclohexanecarboxylic acid] |
